Laboratory results reported in the supplement of paper PMC10307832.

Compound: O=C(NC1CCNCC1)c1n[nH]cc1NC(=O)c1c(Cl)cccc1Cl [AT-7519] + N=C(N)NC(=N)NCCc1ccccc1 [Phenformin] (partner 250 µM)
Assay: relative viability (nuclei count vs DMSO), 5 days (fraction); higher = more cells survive
Conditions: first compound 0.03162 µM
How it was run: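 One day after seeding in 1536-well plates, lung cancer cell lines were dosed by pin tool. Dosing was either single-drug or a fixed anchor-drug dose plus five library-drug doses (not always all listed) in √10 steps. After 5 days, nuclei were stained in one fix-and-stain step and counted on 4× images, and relative viability is the nuclei count of treated wells over that of vehicle wells, given as the median of duplicate plates.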

| Cell Line | relative viability |
| --- | --- |
| COR-L23 | 0.412 |
| COR-L 105 | 0.489 |
| LOU-NH91 | 0.743 |
| ChaGo-K-1 | 0.392 |
| NCI-H2170 | 0.414 |
| NCI-H2405 | 0.39 |
| HOP-62 | 0.655 |
| HCC-44 | 0.199 |
| A549 | 0.153 |
| NCI-H522 | 0.681 |
| LU99A | 0.769 |
| BEN | 0.234 |
| HARA | 0.52 |
| SW 900 | 0.645 |
| HCC-78 | 0.604 |
| NCI-H1563 | 0.625 |

Same assay, conditions: first compound 0.3162 µM

| Cell Line | relative viability |
| --- | --- |
| NCI-H2342 | 0.509 |
| NCI-H1623 | 0.668 |
| NCI-H727 | 0.509 |
| NCI-H1650 | 0.292 |
| NCI-H1993 | 0.528 |
| SW 1573 | 0.236 |
| NCI-H838 | 0.247 |
| LCLC-103H | 0.313 |
| NCI-H520 | 0.422 |
| NCI-H2126 | 0.491 |
| EMC-BAC-2 | 0.495 |
| NCI-H2085 | 0.759 |
| HCC-366 | 0.613 |
| NCI-H1666 | 0.538 |
| NCI-H596 | 0.642 |
| NCI-H2087 | 0.479 |
| SK-MES-1 | 0.63 |

| Cell Line | relative viability |
| --- | --- |
| H3255 | 0.313 |
| COR-L23 | 0.287 |
| COR-L 105 | 0.301 |
| LOU-NH91 | 0.677 |
| ChaGo-K-1 | 0.404 |
| NCI-H2170 | 0.423 |
| NCI-H2405 | 0.35 |
| HOP-62 | 0.512 |
| HCC-44 | 0.154 |
| A549 | 0.158 |
| NCI-H522 | 0.662 |
| LU99A | 0.802 |
| BEN | 0.269 |
| HARA | 0.503 |
| SW 900 | 0.604 |
| HCC-78 | 0.596 |
| NCI-H1563 | 0.645 |

Same assay, conditions: first compound 1 µM

| Cell Line | relative viability |
| --- | --- |
| NCI-H2342 | 0.512 |
| NCI-H1623 | 0.557 |
| NCI-H727 | 0.417 |
| NCI-H1650 | 0.15 |
| NCI-H1993 | 0.439 |
| SW 1573 | 0.0778 |
| NCI-H838 | 0.0953 |
| LCLC-103H | 0.33 |
| NCI-H520 | 0.257 |
| NCI-H2126 | 0.33 |
| EMC-BAC-2 | 0.585 |
| NCI-H2085 | 0.53 |
| HCC-366 | 0.509 |
| NCI-H1666 | 0.402 |
| NCI-H596 | 0.714 |
| LK-2 | 0.307 |

| Cell Line | relative viability |
| --- | --- |
| NCI-H2087 | 0.172 |
| SK-MES-1 | 0.331 |
| H3255 | 0.31 |
| COR-L23 | 0.144 |
| COR-L 105 | 0.286 |
| LOU-NH91 | 0.631 |
| ChaGo-K-1 | 0.451 |
| NCI-H2170 | 0.418 |
| NCI-H2405 | 0.32 |
| HOP-62 | 0.679 |
| HCC-44 | 0.205 |
| A549 | 0.0741 |
| NCI-H522 | 0.675 |
| LU99A | 0.724 |
| BEN | 0.257 |
